In patent US8841316B2, “Multicomponent crystalline system of rosuvastatin calcium salt and vanillin” (BASF SE, priority 2011, dated 2014):

Assay: Water vapor sorption (water content under humidity)
Type: physicochemical

Water vapor sorption: water content after 2 h at 50% r.h. (after 2 h at 50% r.h.): 6.2%
Water vapor sorption: water content after 5 h at 95% r.h. (after 5 h at 95% r.h.): 10.1%
Substance: bis[(E)-7-[4-(4-fluorophenyl)-6-isopropyl-2-[methyl(methylsulfonyl)amino]pyrimidin-5-yl](3R,5S)-3,5-dihydroxyhept-6-enoic acid] calcium salt [Crystal form A]
